What was measured:
CYP81Q1 = target: T1, CYP81Q1 (Sesamum indicum, UniProt Q33DY0); test: HPLC of products formed by yeast cells ([…] nm); assay type: cell-based; conditions: CPR1 and CYP92B14 co-expressed, 48 h
T1 construct: full-length ORF expressed in yeast INVSc with sesame CPR1 (and CYP92B14); whole yeast cells
T1 sequence (Q33DY0 1-506): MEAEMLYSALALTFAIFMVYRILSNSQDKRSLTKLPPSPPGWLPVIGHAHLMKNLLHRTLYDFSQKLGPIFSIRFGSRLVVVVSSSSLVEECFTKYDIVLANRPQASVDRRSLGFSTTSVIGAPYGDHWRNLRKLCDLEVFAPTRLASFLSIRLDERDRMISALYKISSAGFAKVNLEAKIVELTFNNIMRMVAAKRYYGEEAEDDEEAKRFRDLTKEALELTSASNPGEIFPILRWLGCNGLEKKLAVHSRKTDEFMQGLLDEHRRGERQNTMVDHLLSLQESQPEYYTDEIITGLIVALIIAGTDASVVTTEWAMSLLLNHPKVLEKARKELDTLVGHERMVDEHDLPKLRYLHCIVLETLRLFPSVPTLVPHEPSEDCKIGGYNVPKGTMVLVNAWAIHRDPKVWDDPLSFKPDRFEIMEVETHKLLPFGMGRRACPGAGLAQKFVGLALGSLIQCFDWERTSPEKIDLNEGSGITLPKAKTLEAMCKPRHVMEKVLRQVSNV

CYP92B14 [1] = target: T2, CYP92B14 (Sesamum indicum, UniProt A0A2Z5U627); test: inhibition of (+)-sesamolin and (+)-sesaminol formation; assay type: cell-based; conditions: substrate (+)-sesamin; also a reaction by-product
T2 construct: full-length ORF expressed in yeast INVSc with sesame CPR1 (GenBank LC209223) as reductase; microsomes or whole yeast cells
T2 sequence (A0A2Z5U627 1-513): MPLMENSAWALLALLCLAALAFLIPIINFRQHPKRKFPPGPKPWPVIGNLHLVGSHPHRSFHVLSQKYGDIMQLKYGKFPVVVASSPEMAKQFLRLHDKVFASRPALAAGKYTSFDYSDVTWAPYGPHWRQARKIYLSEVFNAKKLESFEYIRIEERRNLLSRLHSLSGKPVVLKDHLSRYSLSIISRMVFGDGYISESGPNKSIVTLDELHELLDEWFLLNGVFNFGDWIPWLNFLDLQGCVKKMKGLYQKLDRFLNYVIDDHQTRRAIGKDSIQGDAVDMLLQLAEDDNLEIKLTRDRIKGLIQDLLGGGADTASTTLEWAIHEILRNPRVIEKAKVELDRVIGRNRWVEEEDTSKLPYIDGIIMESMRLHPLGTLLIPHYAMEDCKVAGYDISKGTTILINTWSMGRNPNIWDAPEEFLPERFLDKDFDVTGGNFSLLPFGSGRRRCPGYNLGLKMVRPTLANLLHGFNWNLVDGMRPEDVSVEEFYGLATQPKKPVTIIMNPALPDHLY

CYP92B14 [2] = target: T2, CYP92B14; test: HPLC of products formed by yeast microsomes; assay type: biochemical; conditions: 100 uM (+)-sesamin, 1 mM NADPH, CPR1 co-expressed, 37 °C, 60 min

Compound	inhibition of (+)-sesamolin and (+)-sesaminol formation (CYP92B14 [1])	HPLC of products formed by yeast microsomes (CYP92B14 [2])	other results
COc1cc([C@H]2OC[C@H]3[C@@H]2CO[C@@H]3c2ccc(O)c(OC)c2)ccc1O [(+)-pinoresinol]	–	–	HPLC of products formed by yeast cells (283 nm) (CYP81Q1): co-expressing CYP81Q1, CYP92B14, and CPR1 converted (+)-pinoresinol to (+)-sesaminol and (+)-sesamolin via (+)-sesamin
Oc1ccc2c(c1)OCO2 [sesamol]	the supplementation of these two compounds clearly inhibited the biosynthetic activity of CYP92B14	–	–
c1cc2c(cc1[C@H]1OC[C@H]3[C@@H]1CO[C@@H]3c1ccc3c(c1)OCO3)OCO2 [(+)-sesamin]	–	yeast cells expressing CYP92B14 and CPR1 converted (+)-sesamin to (+)-sesamolin	–
c1cc2c(cc1O[C@H]1OC[C@H]3[C@@H]1CO[C@@H]3c1ccc3c(c1)OCO3)OCO2 [(+)-sesamolin]	–	yeast cells expressing CYP92B14 and CPR1 converted (+)-sesamin to (+)-sesamolin	–
OC1OC[C@@H]2[C@@H](c3ccc4c(c3)OCO4)OC[C@H]12 (single isomer, unassigned; (+)) [(+)-samin]	the supplementation of these two compounds clearly inhibited the biosynthetic activity of CYP92B14	–	–

From publication PMC5735135, “Oxidative rearrangement of (+)-sesamin by CYP92B14 co-generates twin dietary lignans in sesame” (Nature Communications, 2017)
